Assay results reported in publication PMC10126245 (Frontiers in Cellular and Infection Microbiology, 2023).
≈ marks a conversion by molar mass, not a printed value. Where “and” joins values, the source holds several entries; their conditions need not be identical. Identical values can stand only once.

Tests used:
[1] = test system: CFCF-induced fluid accumulation in ligated-ileal loops; set-up: species or system Swiss albino mice; conditions: mouse, in vivo
[2] = test system: CT-induced cell elongation in CHO cell line; format: cell-based
[3] = test system: CFCF induced histopathological changes in ileal loops; set-up: species or system Swiss albino mice; conditions: mouse, in vivo
[4] = target: CT binding to GM1 receptor (Vibrio cholerae serotype O1, UniProt P01556)
[5] = test system: CHO cell line; assay: cells; conditions: Cricetulus griseus, 24 h
[6] = in vitro; conditions: Chinese hamster
[7] = test system: CHO cell line; conditions: Chinese hamster
[8] = test system: CT-induced cAMP levels in CHO cell line; format: cell-based
[9] = test system: CFCF-induced cAMP levels in ligated-ileal loops; set-up: species or system Swiss albino mice; conditions: mouse, in vivo
[10] = test system: CT-induced cAMP; conditions: 10µg/mL; cited from earlier work
[11] = test system: FITC-CTB binding to Vero cells; conditions: 10µg/ml; cited from earlier work
[12] = test system: CT binding to GM1; conditions: 50mM; cited from earlier work

Chain of CT binding to GM1 receptor (P01556 22-124 limits assumed): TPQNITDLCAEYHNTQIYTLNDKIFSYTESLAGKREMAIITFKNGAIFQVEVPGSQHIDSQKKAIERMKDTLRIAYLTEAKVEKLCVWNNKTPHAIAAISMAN

Structure (SMILES)	Mean W/L ratio [1]	Mean weight/length (W/L) ratio of ligated-ileal loops [1]	Protection against CT-induced cell elongation [2]	Protection against CFCF induced histopathological changes (inflammation, edema) [3]	Binding inhibition of CT to GM1 [4] [%]	Binding inhibition percentage (BI%) [4]	IC50 [5] [µg/mL]	viability [6] [%]	NC1 (non-cytotoxic concentration) [7] [µg/mL]	NC2 (non-cytotoxic concentration) [7] [µg/mL]	viability [7] [%]	Bound percent (B%) of cAMP [8]	cAMP levels in ligated-ileal tissues [9]	Decrease in cAMP compared to CT control [10] [%]	Inhibition of binding of FITC-CTB to Vero cells [11] [%]	Binding inhibition of CT to GM1 [12] [%]
O=C(/C=C/c1ccc(O)c(O)c1)O[C@@H]1C[C@](O)(C(=O)O)C[C@@H](O)[C@H]1O [Chlorogenic acid]	0.132 and 0.176	0.132 g/cm and 0.176 g/cm	greater protective activities	substantial protective activity	> 50	92% and 81%	398 ± 5.4 (≈ 1120 µM)	90.5	100	50	97.2	81% and 78%	1.18% and 1.89%			
O=c1oc2c(O)c(O)cc3c(=O)oc4c(O)c(O)cc1c4c23 [Ellagic acid]	0.091 and 0.094	0.091 g/cm and 0.094 g/cm	greater protective activities	substantial protective activity	> 50	97%	116 ± 9.6 (≈ 382 µM)	93.2	30	15	97.5	82% and 81%	0.62% and 1.31%			
O=C(O)c1cc(O)c(O)c(O)c1 [Gallic acid, reference compound]	0.222 and 0.188	0.188 g/cm		indistinct amelioration			103 ± 1.1 (≈ 604 µM)	93.5	25	12.5	97.9	80% and 60%	1.79% and 3.39%	76	23	40
O=C(CCc1ccc(O)cc1)c1c(O)cc(O)cc1O[C@@H]1O[C@H](CO)[C@@H](O)[C@H](O)[C@H]1O [Phloridzin]					> 50		298 ± 3.9 (≈ 683 µM)	94.8	75	37.5	97.6	71% and 50%				
C[C@@H]1O[C@@H](Oc2c(-c3ccc(O)c(O)c3)oc3cc(O)cc(O)c3c2=O)[C@H](O)[C@H](O)[C@H]1O [Quercetrin, reference compound]							234 ± 3.7 (≈ 521 µM)	91	60	30	96.3	66% and 47%		59	20	
C[C@@H]1O[C@@H](OC[C@H]2O[C@@H](Oc3c(-c4ccc(O)c(O)c4)oc4cc(O)cc(O)c4c3=O)[C@H](O)[C@@H](O)[C@@H]2O)[C@H](O)[C@H](O)[C@H]1O [Rutin]						9% and 2%	287 ± 6.9 (≈ 471 µM)	92.4	70	35	97.6	53% and 44%				
